# Results: patent publication US20070249603A1, “3-Arylsulfonyl-Quinolines as 5-Ht6 Receptor Antagonists for the Treatment of Cns Disorders” (priority 2004, published 2007)
# Structures can show the parent of a compound that is named as a salt.
# Molecular target: T1, human cloned 5-HT6 receptors (Homo sapiens, UniProt P50406)
# T1 construct: expressed in transfected cells; host or cells: HeLa cells expressing cloned 5-HT6 receptor (membranes)
# Test: Cyclase assay (cAMP production in membranes of HeLa 5HT6 cells, antagonism of 5-HT)
# Format: biochemical
# Conditions: antagonist potency, 5-HT at 4×EC50, functional Ki by Cheng-Prusoff from IC50, read-out: fpKi (negative log10 of the molar functional Ki) (converted)
# Method: Compounds of the invention may be tested for in vitro biological activity in accordance with the following cyclase assay:
# 0.5 μl of test compound in 100% dimethylsulfoxide (DMSO) was added to a white, solid 384 well assay plate (for dose response measurements the top of the concentration range is 7.5 μM final). […]
# cAMP production was then measured using the DiscoveRx™ HitHunter™ chemiluminescence cAMP assay kit (DiscoveRx Corporation, 42501 Albrae Street, Fremont, Calif. 94538; Product Code: 90-0004L) or any other suitable cAMP measurement assay.
# IC50 values were estimated from arbitrary designated unit (ADU) measurements from a Perkin Elmer Viewlux instrument using a four parameter logistic curve fit within EXCEL (Bowen, W. P. and Jerman, J. C. (1995), Nonlinear regression using spreadsheets. Trends in Pharmacol. Sci., 16, 413-417). Functional Ki values were calculated using the method of Cheng, Y. C. and Prussof, W. H. (Biochemical Pharmacol (1973) 22 3099-3108). pI50 and fpKi are the negative log10 of the molar IC50 and functional Ki respectively.
# T1 sequence (P50406 whole entry): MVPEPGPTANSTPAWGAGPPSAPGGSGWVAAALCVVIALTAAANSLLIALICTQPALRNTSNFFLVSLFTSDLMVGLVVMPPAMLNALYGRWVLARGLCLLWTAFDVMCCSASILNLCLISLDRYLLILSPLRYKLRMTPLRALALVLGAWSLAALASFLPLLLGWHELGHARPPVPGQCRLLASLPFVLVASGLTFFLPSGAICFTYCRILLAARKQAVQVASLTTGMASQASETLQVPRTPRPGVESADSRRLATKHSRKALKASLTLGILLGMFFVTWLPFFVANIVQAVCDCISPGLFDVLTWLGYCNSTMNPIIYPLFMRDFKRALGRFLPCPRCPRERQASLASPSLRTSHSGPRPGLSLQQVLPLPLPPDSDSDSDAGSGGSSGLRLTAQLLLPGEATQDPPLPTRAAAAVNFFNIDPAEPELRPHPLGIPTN
structure (smiles),measurement,value
"CN(C)C1CCN(c2ccc(I)c3cc(S(=O)(=O)c4ccccc4)cnc23)CC1 [Example 13, 1-[5-Iodo-3-(phenylsulfonyl)-8-quinolinyl]-N,N-dimethyl-4-piperidinamine hydrochloride]",Ki,158 nM
